Experimental findings from patent US20240182445A1 (ONO PHARMACEUTICAL CO., LTD., priority 2019, published 2024) are described below.

Experiment [1] has as its target T1, human TREK-1 (Homo sapiens, UniProt O95069).
T1 construct: expressed in transfected cells
T1 sequence (O95069 1-426): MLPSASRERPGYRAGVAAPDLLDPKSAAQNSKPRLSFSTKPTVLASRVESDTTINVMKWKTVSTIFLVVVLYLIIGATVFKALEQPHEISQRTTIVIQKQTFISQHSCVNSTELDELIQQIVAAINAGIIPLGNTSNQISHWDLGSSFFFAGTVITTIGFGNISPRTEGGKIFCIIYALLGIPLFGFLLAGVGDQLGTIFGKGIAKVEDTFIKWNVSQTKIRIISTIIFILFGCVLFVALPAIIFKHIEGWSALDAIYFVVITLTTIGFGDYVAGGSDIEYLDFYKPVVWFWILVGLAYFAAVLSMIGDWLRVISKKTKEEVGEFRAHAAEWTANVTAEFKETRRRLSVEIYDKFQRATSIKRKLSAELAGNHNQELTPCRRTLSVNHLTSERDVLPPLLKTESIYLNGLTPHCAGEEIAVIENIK
As to the kind of experiment: TREK-1 Manual Patch Clamp (hMPC) assay. Type of experiment: cell-based. The following applies: CHO-K1 cells stably expressing human TREK-1; whole-cell current at 0 mV. Here is the method:
The term “patch clamp technique” herein refers to the “gold standard” technique for evaluating TREK channel pharmacology. The detail method is described below.
CHO-K1 cells stably expressing human TREK-1 or HEK293 cells stably expressing human TREK-2 are plated on glass coverslips, and voltage clamped in the whole-cell configuration of the patch clamp technique. Cells were voltage clamped at a holding potential of −80 mV and the stepped to 0 mV for 500 msec. The voltage was subsequently ramped from −120 mV to +80 mV over a 500 msec duration. This step-ramp protocol was repeated every 10 sec. The bathing solution contained the following: 135 mM NaCl, 5 mM KCl, 2 mM CaCl2, 1 mM MgCl2, 5 mM D-Glucose, 10 mM HEPES, 10 mM sucrose (adjusted to pH 7.4 with NaOH, 300 mosmol/kg H2O). The pipette solution contained the following: 135 mM KCl, 2 mM MgCl2, 1 mM EGTA, 10 mM HEPES, 2 mM Na2ATP (adjusted to pH 7.35 with KOH, 285 mosmol/kg H2O). Test compounds were dissolved into the bathing solution. Experiments on TREK-2 were terminated with the addition of the control compound (tert-butyl (3-((4-(benzyloxy)-2-methylphenyl)carbamoyl)-4-chlorophenyl)carbamate) so that maximal inhibition could be determined. The effects of test compound on the currents were calculated at 0 mV using the following equations:
For CHO cells expressing TREK-1 channel: % inhibition=(1-post current/pre current)×100
The compounds shown in Table 2 were prepared in an analogous manner with the appropriate starting materials, and evaluated in our TREK-1 Manual Patch Clamp (hMPC) assay.
(In patch-clamp work, channel activity is measured electrically.)

Experiment [2] addresses T1, human TREK-1. As to the kind of experiment: TREK-1 Thallium flux assay, Method 2. Type of experiment: cell-based. The note with it: measured by Method 2 of TREK1 Thalium flux assay (footnote *12); read-out: Tl+ Assay IC50. How it is done:
CHO-K1 cells stably expressing human TREK-1 were plated in 384-well plates on the day of assay, loaded with Thallos dye. Test compounds or control compound (tert-butyl (3-((4-(benzyloxy)-2-methylphenyl)carbamoyl)-4-chlorophenyl)carbamate) or 0.3% DMSO (vehicle control) were added directly to the cell plates and incubated for 10 min, and then treated with thallium stimulus buffer to initiate thallium flux. To measure the efficacy and potency of test compounds, the change in fluorescence intensity (ΔRatio) and % inhibition were calculated using the following equations:
ΔRatio=(fluorescence intensity at 25 seconds after thallium addition)/(average of fluorescent intensity before thallium addition)

In general, IC50 refers to the midpoint of a concentration-inhibition curve. Consider `Cc1cc(C#Cc2ccccc2)cnc1NC(=O)c1c(Cl)cnn1[C@H]1CCN(C(=O)C2CC2)C1` [Compound 454, 4-chloro-1-[(3S)-1-(cyclopropanecarbonyl)pyrrolidin-3-yl]-N-[3-methyl-5-(phenylethynyl)pyridin-2-yl]-1H-pyrazole-5-carboxamide], for which the IC50 in experiment [1] is 100 nM; in experiment [2], 130 nM. `Cc1cc(C#Cc2ccccc2)cnc1NC(=O)c1c(Cl)cnn1[C@H]1CCn2nccc2C1` (single isomer, unassigned) [Compound 456, 4-chloro-N-[3-methyl-5-(phenylethynyl)pyridin-2-yl]-1-[(5S)-4,5,6,7-tetrahydropyrazolo[1,5-a]pyridin-5-yl]-1H-pyrazole-5-carboxamide or 4-chloro-N-[3-methyl-5-(phenylethynyl)pyridin-2-yl]-1-[(5R)-4,5,6,7-tetrahydropyrazolo[1,5-a]pyridin-5-yl]-1H-pyrazole-5-carboxamide]: the concentration for half-maximal inhibition (IC50) in experiment [2] is 120 nM. Still for that read-out and setting: then `Cc1cc(C#Cc2ccccc2)cnc1NC(=O)c1c(Cl)cnn1[C@@H]1CCN(C(=O)C2CC2)C1` [Compound 455, 4-chloro-1-[(3R)-1-(cyclopropanecarbonyl)pyrrolidin-3-yl]-N-[3-methyl-5-(phenylethynyl)pyridin-2-yl]-1H-pyrazole-5-carboxamide], with 140 nM; and `Cc1cc(C#Cc2ccccc2)cnc1NC(=O)c1c(Cl)cnn1[C@H]1CCn2nccc2C1` (single isomer, unassigned) [Compound 457, 4-chloro-N-[3-methyl-5-(phenylethynyl)pyridin-2-yl]-1-[(5S)-4,5,6,7-tetrahydropyrazolo[1,5-a]pyridin-5-yl]-1H-pyrazole-5-carboxamide or 4-chloro-N-[3-methyl-5-(phenylethynyl)pyridin-2-yl]-1-[(5R)-4,5,6,7-tetrahydropyrazolo[1,5-a]pyridin-5-yl]-1H-pyrazole-5-carboxamide], with 37 nM.
